`CCCCc1ncc(C(=O)OC)c(=O)n1Cc1ccc(-c2ccccc2C(=O)O)cc1` gave a melting point of 166 to 168 °C.
Consider `COC(=O)OC(C(=O)O)c1ccccc1` (centres undefined), for which the melting point is 103 to 105 °C.
On to `CCN(CC)C(=O)n1ccc(S(=O)c2ccccc2Cl)n1` (centres undefined), for which the melting point lay within 54 to 56 °C.
The compound `CCCCc1oc2ccccc2c1/C=N/OCCCOc1ccc(C(=O)O)c(NC(=O)c2ccc(C(C)(C)C)cc2)c1` yielded a melting point of 181 to 182 °C.
With `COC(=O)c1c(C(F)F)nc(C(F)(F)F)c(C(=O)OC)c1OC(C)C`, the melting point fell in the range of 41 to 42 °C.
As to `Nc1ccc(C(O)c2ccc(Cl)cn2)cc1` (centres undefined), the melting point was 122 to 123 °C.
For `NCCC(O)c1ccccc1` (centres undefined) the value was 92 to 94 °C.
The compound `COc1cc(C(=O)c2ccc(C(F)(F)F)cc2)cc([N+](=O)[O-])c1OC` showed a melting point of 115 °C.
Take `COc1ccc(F)cc1Oc1c(Cl)ncnc1NS(=O)(=O)c1ccc(Cl)cc1`: the melting point was 169 to 171 °C.
The compound `Nc1ccc(C#Cc2ccc(C#Cc3ccccc3)c([N+](=O)[O-])c2)cc1` had a melting point of 175 to 177 °C.
`CCCCCCCN1C(=O)C2CC(c3ccc([N+](=O)[O-])cc3)(C2)C1=O` registered a melting point of 91 to 92 °C.
The compound `CCCCCCCCCCCCCC(=O)N[C@H]1CCCNC(=O)C1` displayed a melting point of 97 to 98 °C.
`C=CCCCCCCCCC(=O)N1CCN(c2cc(N)nc(N)n2)CC1` came in with a melting point of 100 to 104 °C.
For `CCNC(=O)CNC(=S)c1cccnc1` the value was 136 to 138 °C.
In turn, `CCCN(CCC)C(C)(C)CC(C)(C)C` had a melting point of 43 to 45 °C.
With `Clc1ccc2[nH]c(=Nc3ccccc3)n3nc(-c4ccco4)nc3c2c1` the figure was 231 to 233 °C.
For `C[C@H](NC(=O)c1cccc(NS(=O)(=O)CC2CN(C(c3ccc(Cl)cc3)c3ccc(Cl)cc3)C2)c1)C(N)=O` the value was 229 °C; for `CSc1ccc(C(=O)Nc2ccccc2)cc1N`, 143 to 145 °C; for `O=C(O)Cn1c(=O)c(=O)[nH]c2cc([N+](=O)[O-])c(-n3ccc(CN4CCN(C(c5ccccc5)c5ccccc5)CC4)c3)cc21`, greater than 245 °C.
For `NCc1cn(C2CCc3ccccc3C2)c(=S)[nH]1` (centres undefined), the melting point lay within 197 to 200 °C.
With `CCN(CC)c1ccc2ccc(=O)oc2c1` the figure was 87.5 to 88 °C; with `CCOC(=O)Cn1nc(-c2cc(Cl)ccc2O)nc1-c1cc(Cl)ccc1O`, 195 to 200 °C; with `CCCCc1nc2c(N)nc(C)c(C)c2n1CC(C)(C)NS(C)(=O)=O`, 90 to 92 °C.
With `CS(=O)(=O)c1ccc(-c2cc(CO)sc2-c2ccc(F)cc2)cc1`, the melting point fell in the range of 140 to 142 °C.
In turn, `CC(O)=CC(N)=NC(C)(C)C` registered a melting point of 119 to 125 °C.
`O=C(Nc1ccc(CN2C(=O)[C@H]3CCC[C@H]3N(C(=O)CN3C(=O)c4ccccc4C3=O)c3ccccc32)cc1)c1ccc(Cl)cc1` (relative stereo): the melting point lay in the range of 191 to 194 °C.
In the case of `CCOC(=O)C1(Sc2ccccc2)Cc2ccc(N(C)C)cc2NC1=O` (centres undefined), the melting point is 134 to 139 °C.
Consider `CC(C)C(=O)OCCn1nc(-c2cc(C(C)(C)C)c(O)c(C(C)(C)C)c2)c2cccnc21`, for which the melting point was in the range of 94 to 96 °C.
For `C[C@H]1Cc2cccc3sc(=O)n(c23)C1` the value was 54 to 56 °C.
With `COC(=O)CC[C@H](NC(=O)c1ccc(CCC2CNc3nc(NC(=O)C(C)(C)C)nc(O)c3C2)s1)C(=O)OC` (some centres undefined) the figure was 152 to 160 °C; with `COCCNn1ncc2nc(C)ccc21`, 167 to 170 °C; with `CN(C)/C=C(\C#N)c1cccc(Br)c1`, 102 to 105 °C.
Consider `CN(Sc1ccc(C(C)(C)C)cc1)C(=O)Oc1cccc2c1OC(C)(C)C2`, for which the melting point was 120 to 123 °C.
Compound `CC(=O)Nn1c2c(c3ccccc31)Cc1ccccc1-2` came in with a melting point greater than 240 °C.
With `O=C(Nc1cc(-c2ccc(Cl)cc2)on1)c1c(Cl)cccc1Cl` the figure was 228 to 229 °C; with `CCOc1ccc(C(=O)CBr)cc1C(=O)OC`, 147 to 148 °C; with `CCN(CC)C1=CC(=O)C(=O)C=C1N(CC)CC`, 100 to 103 °C.
With `Nc1nc2ccccc2c2c1nc1n2C(COCc2ccccc2)COC1` (centres undefined) the figure was 185 to 186 °C.
`CN(CCN1CCOCC1)c1ccc(OCC(=O)N[C@@H](CC(N)=O)C(=O)N[C@@H](Cc2ccccc2)[C@H](O)C(=O)N2CCC[C@H]2C(=O)NC(C)(C)C)cc1` gave a melting point of 85 to 95 °C.
As to `CCCc1cc2cc(O)ccc2c(Oc2ccc(/C=C/C(=O)O)cc2)c1-c1ccccc1`, the melting point was 120 to 122 °C.
In turn, `Cc1nc(NC(=O)c2cnn3c(C(F)(F)F)cc(-c4ccc(Cl)c(Cl)c4)nc23)sc1S(N)(=O)=O` gave a melting point of 307 °C.
For `O=C(CSc1nc2ccccc2[nH]1)c1ccccc1` the value was 167 °C.
`COc1cccc(CNc2nccc(-c3cc(N4CCN(CCCN5CCCC5)CC4)c4cc(OC)ccc4c3)n2)c1` registered a melting point of 160 to 167 °C.
On to `CCCCOc1ccc(S(=O)(=O)C2(C(=O)O)CCN(CC)CC2)cc1`, for which the melting point turned out to be 162 °C.
As for `CCCS(=O)(=O)N=C(N[N+](=O)[O-])SC`, the melting point was 91 to 93 °C.
With `O=S(=O)(Nc1cccc(CCOCc2sc3ccccc3c2Cl)c1)C(F)(F)F` the figure was 85 to 87 °C; with `COc1cc(Nc2c(C#N)cnc3cc(-c4ccc(CN5CCOCC5)o4)ccc23)c(Cl)cc1Cl`, 182 to 183 °C; with `CCOC(=O)C1=C(C)NC(COCCN2C(=O)c3ccccc3C2=O)=C(C(=O)OC)C1c1cccc(Cl)c1Cl` (centres undefined), 165 °C.
Compound `CC(=O)c1c(CBr)n(S(=O)(=O)c2ccccc2)c2ccc(Cl)cc12` registered a melting point of 155 °C.
The compound `C=C(c1ccccc1N1CCCCC1)C(C(N)=O)c1ccc(C(=O)O)cc1` (centres undefined) gave a melting point of 158 to 160 °C.
`CON=C(C(C)=NN=Cc1ccccc1N(OC)C(=O)OC)c1ccc(F)cc1` gave a melting point of 88 to 90 °C.
Regarding `CCCCN1CCC(NS(=O)(=O)c2ccc(Nc3ccnc4cc(Cl)ccc34)cc2)CC1`, the melting point is 190 to 191 °C.
For `CC1NC(=O)NN=C1c1ccc(C#N)cc1` (centres undefined) the value was 268 to 269 °C.
Turning to `COc1cc(OC)nc(Sc2ncccc2C(=O)O)n1`, the melting point lay within 165 to 168 °C.
`CCOC(Cc1ccc(OCCN2c3ccccc3Oc3ccccc32)cc1)C(=O)OC` (centres undefined) had a melting point of 88 to 90 °C.
With `FC(F)(F)c1ccc(OCCc2c[nH]cn2)cc1` the figure was 105 to 109 °C; with `CC(C)n1nc(-c2sc(C(=O)NCc3ccccn3)nc2-c2ccc(F)cc2)ccc1=O`, 204 to 205 °C.
In the case of `Cc1cc(=O)c(O)c(C)o1`, the melting point was in the range of 161 to 163 °C.
For `O=C(O)COc1cccc2c1OCc1sc(SCC(c3ccccc3)c3ccccc3)nc1-2` the value was 182 to 184 °C.
With `CCn1cc(CN(C(=O)C2CCCc3ccccc32)c2ccc(C(C)C)cc2)cn1` (centres undefined) the figure was 75 to 76 °C; with `CCOC(=O)/C=C/c1cn(-c2ccc(C(F)(F)F)cn2)nc1C`, 131 to 132 °C.
`CC(=O)Nc1ccc2c3c(cccc13)S(=O)(=O)N2CCCCl` had a melting point of 205 °C.
In turn, `CCOC(=O)C(CC(=O)c1cccc(F)c1)(NC(C)=O)C(=O)OCC` registered a melting point of 121 to 123 °C.
`CCCCC1(CCCC)CCc2ccc(OCc3ccc4ccccc4n3)cc2C1=O` had a melting point of 88 to 89 °C.
Turning to `Nc1cc(-n2cccc2)ccc1Nc1cccc(-c2cncnc2)c1`, the melting point lay in the range of 190 to 192 °C.
`O=CN1CCN(C(=O)COc2cc(-c3ccccc3)nc3ccccc23)CC1` came in with a melting point of 170 °C.
As for `O=C1c2ccccc2C=C(Cl)C(Cl)c2ccccc21` (centres undefined), the melting point was in the range of 123 to 125 °C.
With `COCCOc1ccc(C(=O)C(=O)O)cc1` the figure was 129 to 130 °C; with `Nc1cnc2cccnc2c1Cl`, 188 to 190 °C; with `CCCCCCC[C@H]1O[C@H]1C(=O)O`, 53 to 55 °C.
In turn, `C=C(C)C(=O)N1CCC[C@H]1C(=O)O` registered a melting point of 102 to 104 °C.
Turning to `Oc1cccc(C2CCCN(CCCc3ccccc3)C2)c1` (centres undefined), the melting point lay within 119 to 120 °C.
Regarding `Cc1noc(NC(=O)N2CCC(c3nc(-c4ccc(F)cc4)cs3)CC2)c1C`, the melting point lay in the range of 170 to 171 °C.
For `COc1ccc(CCn2ccn(C3CCc4ccccc4C3)c2=S)cc1OC` (centres undefined), the melting point lay in the range of 97 to 101 °C.
With `Cc1ccccc1S(=O)(=O)NC(=O)c1ccc2c(c1)CCN2Cc1cccc([N+](=O)[O-])c1` the figure was 159 to 163 °C; with `NC(=NO)c1c(F)ccc(OCc2nc3cc(Cl)ccc3s2)c1F`, 169 to 170 °C.
With `CN(C)c1ccc(-c2cc(N(C(=O)OC(C)(C)C)C(=O)OC(C)(C)C)nn2C(=O)OC(C)(C)C)cc1` the figure was 64 to 65 °C; with `COc1ccc(Cl)c(Oc2c(C)nc(N3CCOCC3)nc2Cl)c1`, 134 °C; with `CCCCc1nc2c(N)nc3ccccc3c2n1CCCCCC(=O)c1ccccc1`, 149 to 151 °C.
The compound `O=c1c2c([nH]n1-c1ccccc1)CCCC2` had a melting point of 178 to 181 °C.
For `CN(O)C(=O)c1ccc(C=Cc2ccccn2)cc1` the value was 135 to 138 °C; for `O=C(O)c1ccc(CCOc2c(F)ccc3nc(C(=O)NCc4cccc(OCCOc5nc[nH]n5)c4)[nH]c(=O)c23)cc1`, 122 to 124 °C.
For `CCOC(=O)C(Cc1ccc(Cl)cc1SCc1ccc(OC)cc1)(CC(C)C)C(=O)OCC` the value was 95 to 97 °C.
With `COc1cc(C)c(NS(C)(=O)=O)cc1C(=O)NCC(Cl)CCCCl` (centres undefined) the figure was 132 °C; with `CC(C)c1ccc2c(c1)c(S(=O)(=O)c1ccccc1)c(CC(C)(C)C(=O)O)n2Cc1ccc(Cl)cc1`, 169 to 172 °C; with `COC(=O)CCCCCSc1ccc(-c2ccc(Cl)cc2)cc1`, 87 to 88 °C.
`CCc1nn(C)c(CC)c1NC(N)=S` showed a melting point of 234 to 235 °C.
On to `Cc1ccc(S(=O)(=O)OC[C@@H](O)CCc2ccccc2)cc1`, for which the melting point was 68 to 69 °C.
In turn, `CNc1c(C/C=C(\C)CCC(=O)O)c(OC)c(C)c2c1C(=O)OC2` displayed a melting point of 121 to 124 °C.

Source of the values: a melting point compilation (Tetko et al.; mined from patent text by program, amines drawn as free bases though some values may be those of a salt).
